Test results published in ChEMBL document CHEMBL1201862, “PubChem BioAssay data set” (2004).
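Compound exposure: 48 hours, 5 concentrations, 96-well plates. GI50 is the concentration that inhibits growth by half.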 Active and inactive are the calls of the source. Rule as the data show it: active = GI50 up to about 1.1 µM and inactive = higher.

Experiments:
Assay in all cases: NCI-60 cell line screen, 48 h
[1] = system: 786-0
[2] = system: CAKI-1
[3] = system: CCRF-CEM
[4] = system: HCT-116
[5] = system: Hs-578T
[6] = system: MOLT-4
[7] = system: NCI-H23
[8] = system: RPMI-8226
[9] = system: RXF 393
[10] = system: SF-268
[11] = system: SK-MEL-28
[12] = system: SK-MEL-5
[13] = system: SK-OV-3
[14] = system: SN12C
[15] = system: SNB-19
[16] = system: SR
[17] = system: T47D
[18] = system: TK-10
[19] = system: UACC-62
[20] = system: UO-31

Measured: GI50

Oc1cc(-c2ccccc2Cl)nc2cc3c(cc12)OCO3
active: [1] 0.32 µM | [2] 0.0573 µM | [3] 0.0422 µM | [4] 0.0528 µM | [5] 0.44 µM | [6] 0.123 µM | [7] 0.122 µM | [8] 0.101 µM | [9] 0.0416 µM | [11] 0.0638 µM | [12] 0.0435 µM | [13] 0.17 µM | [14] 0.261 µM | [15] 0.144 µM | [16] 0.0562 µM | [18] 0.731 µM | [19] 0.0574 µM | [20] 0.224 µM
inactive: [10] 1.64 µM | [17] 26.6 µM

c1ccc2c(c1)[nH]c1c3ccccc3sc21
inactive: [1] > 100 µM | [2] > 100 µM | [3] > 100 µM | [4] 82.6 µM | [5] > 100 µM | [6] > 100 µM | [7] > 100 µM | [8] > 100 µM | [9] 26.5 µM | [10] > 100 µM | [11] > 100 µM | [12] > 100 µM | [13] > 100 µM | [14] > 100 µM | [15] > 100 µM | [16] 23 µM | [17] 38.3 µM | [18] > 100 µM | [19] > 100 µM | [20] > 100 µM

CCN(CC)CCN1C=CC(C)C(C(=O)O)C1C(N)=O (stereo not given)
inactive: [1] > 100 µM | [2] > 100 µM | [3] > 100 µM | [4] > 100 µM | [5] > 100 µM | [6] > 100 µM | [7] > 100 µM | [8] > 100 µM | [9] > 100 µM | [10] > 100 µM | [11] > 100 µM | [12] > 100 µM | [13] > 100 µM | [14] > 100 µM | [15] > 100 µM | [16] > 100 µM | [17] > 100 µM | [18] > 100 µM | [19] > 100 µM | [20] > 100 µM

COc1ccc(N2C(=O)C3c4[nH]c5ccc(C)cc5c4C4CCC(C(C)(C)C)CC4C3C2=O)cc1 (stereo not given)
inactive: [1] 20.4 µM | [2] 10.3 µM | [3] 4.84 µM | [4] 7.66 µM | [5] 3.64 µM | [6] 12.9 µM | [7] 22.3 µM | [8] 11.2 µM | [9] 16.9 µM | [10] 13 µM | [11] 11.5 µM | [12] 20.7 µM | [13] 12.4 µM | [14] 48.4 µM | [15] 22.6 µM | [16] 11.6 µM | [17] 35.2 µM | [18] 17.1 µM | [19] 7.93 µM | [20] 17.2 µM

C[N+](C)([O-])C12CC3CC(CC(C3)C1)C2
inactive: [1] 25.5 µM | [2] > 100 µM | [3] 34.1 µM | [4] 23.9 µM | [5] 55.6 µM | [6] 29.3 µM | [7] 28.2 µM | [8] 29.9 µM | [9] 37.5 µM | [10] 38.3 µM | [11] 32.4 µM | [12] 27.2 µM | [13] 61.9 µM | [14] 33.7 µM | [15] 46.3 µM | [16] 41.3 µM | [17] 26.9 µM | [18] 20.9 µM | [19] 20.1 µM | [20] 13.9 µM

COC(=O)/C=C1/OC(c2ccccc2)=C(Cl)C1=O
inactive: [1] 18.3 µM | [2] 18.2 µM | [3] 5.58 µM | [4] 13.1 µM | [5] 21.5 µM | [6] 5.32 µM | [7] 19.4 µM | [8] 7.33 µM | [9] 15.7 µM | [10] 19.5 µM | [11] 21.1 µM | [12] 14.9 µM | [13] 31.6 µM | [14] 23.1 µM | [15] 31.3 µM | [16] 4.72 µM | [17] 19.1 µM | [18] 31.9 µM | [19] 18 µM | [20] 20.9 µM

CC1=C2C(=O)OCC23C=COC3(C)O1 (stereo not given)
inactive: [1] 35.6 µM | [2] 37 µM | [3] 33.5 µM | [4] 26.9 µM | [5] 50.4 µM | [6] 21.4 µM | [7] 39 µM | [8] 32.5 µM | [9] 31.4 µM | [10] 60.7 µM | [11] 20.4 µM | [12] 18 µM | [13] 46 µM | [14] 37.7 µM | [15] 58.9 µM | [16] 8.38 µM | [17] 29.3 µM | [18] 42 µM | [19] 19.4 µM | [20] 30.8 µM

N#CC(NNC(=O)c1ccccc1O)c1c(O)ccc2ccccc12 (stereo not given)
inactive: [1] 4.56 µM | [2] 4.18 µM | [4] 2.84 µM | [5] 17.3 µM | [6] 2.26 µM | [7] 4.65 µM | [8] 3.48 µM | [9] 2.75 µM | [10] 3.24 µM | [11] 9.33 µM | [12] 2.67 µM | [13] 4.68 µM | [14] 7.64 µM | [15] 13.6 µM | [16] 1.46 µM | [17] 2.96 µM | [18] 4.7 µM | [19] 2.61 µM | [20] 2.92 µM
active: [3] 0.962 µM

O=C(/C=C/c1cccs1)c1ccccc1Cl
inactive: [1] 14.1 µM | [2] 10.6 µM | [3] 8.71 µM | [4] 13 µM | [5] 14.1 µM | [6] 5.7 µM | [7] 8.81 µM | [8] 16 µM | [9] 7.24 µM | [10] 11.4 µM | [11] 16.3 µM | [12] 16.4 µM | [13] 30.7 µM | [14] 15.9 µM | [15] 15.6 µM | [16] 4.2 µM | [17] 5.96 µM | [18] 16.4 µM | [19] 13.3 µM
active: [20] 0.615 µM

CCC1(CC)C(=O)NN(C(=O)c2ccc(Cl)cc2)C1=O
inactive: [1] > 100 µM | [2] > 100 µM | [3] > 100 µM | [4] > 100 µM | [5] > 100 µM | [6] > 100 µM | [7] > 100 µM | [8] > 100 µM | [9] > 100 µM | [10] > 100 µM | [11] > 100 µM | [12] > 100 µM | [13] > 100 µM | [14] > 100 µM | [15] > 100 µM | [16] > 100 µM | [17] > 100 µM | [18] > 100 µM | [19] > 100 µM | [20] > 100 µM

O=C(O)C/C=C/CC(=O)O
inactive: [1] > 100 µM | [2] > 100 µM | [3] > 100 µM | [4] > 100 µM | [5] > 100 µM | [6] > 100 µM | [7] > 100 µM | [8] > 100 µM | [9] > 100 µM | [10] > 100 µM | [11] > 100 µM | [12] > 100 µM | [13] > 100 µM | [14] 25.7 µM | [15] > 100 µM | [16] > 100 µM | [17] > 100 µM | [18] > 100 µM | [19] > 100 µM | [20] > 100 µM

OC(c1ccc(-c2ccccc2)cc1)C(F)(F)c1nc2ccccc2o1 (stereo not given)
inactive: [1] 25.9 µM | [2] 25.1 µM | [3] > 45 µM | [4] 45.2 µM | [5] 20.9 µM | [6] 28.5 µM | [7] 39.9 µM | [8] 51.3 µM | [9] 16.4 µM | [10] 54.5 µM | [11] > 100 µM | [12] 65.3 µM | [13] 37.2 µM | [14] 50.5 µM | [15] 49 µM | [16] 25.9 µM | [17] 31.8 µM | [18] 38.3 µM | [19] > 78 µM | [20] 55 µM

COc1c(-c2nc3ccc(N4CCN(C)CC4)cc3[nH]2)cc(OC)c2[nH]c(COC(C)=O)nc12
inactive: [1] 36.6 µM | [2] > 100 µM | [3] 29.2 µM | [4] 32.4 µM | [5] > 100 µM | [6] 45 µM | [7] 65.9 µM | [8] 34.7 µM | [9] 11.8 µM | [10] 94.8 µM | [11] > 100 µM | [12] 94.6 µM | [13] 63.7 µM | [14] 41.4 µM | [15] 36 µM | [16] 27.8 µM | [17] 24.8 µM | [18] 71.4 µM | [19] > 100 µM | [20] 42.3 µM

O=C1Nc2ccccc2/C1=C\c1c(Cl)n(-c2ccccc2)c2ccccc12
active: [5] 0.851 µM | [10] 0.832 µM
inactive: [1] 2.67 µM | [2] 2.49 µM | [3] 6.65 µM | [4] 2.11 µM | [6] 4.82 µM | [7] 2.45 µM | [8] 4.92 µM | [9] 2.14 µM | [11] 12 µM | [12] 2.66 µM | [13] 4.07 µM | [14] 3.61 µM | [15] 2.99 µM | [16] 2.96 µM | [17] 3.41 µM | [18] 3.95 µM | [19] 8.07 µM | [20] 2.4 µM
